How the values were obtained:
[1] = molecular target: T1, C-CBL (residues 46-435) (Homo sapiens, UniProt P22681); assay: Ligand Displacement Assay (LDA), HTRF competitive binding against BODIPY-labeled fluorescent tracer, C-CBL; conditions: geometric mean of the number of tests, read-out: C-CBL Ki (nM) GMean
T1 construct: Purified CBL-B (residues 36-427) and C-CBL (residues 46-435) proteins from baculovirus-infected insect cells; made in house; host or cells: baculovirus-infected insect cells
T1 sequence (P22681 46-435): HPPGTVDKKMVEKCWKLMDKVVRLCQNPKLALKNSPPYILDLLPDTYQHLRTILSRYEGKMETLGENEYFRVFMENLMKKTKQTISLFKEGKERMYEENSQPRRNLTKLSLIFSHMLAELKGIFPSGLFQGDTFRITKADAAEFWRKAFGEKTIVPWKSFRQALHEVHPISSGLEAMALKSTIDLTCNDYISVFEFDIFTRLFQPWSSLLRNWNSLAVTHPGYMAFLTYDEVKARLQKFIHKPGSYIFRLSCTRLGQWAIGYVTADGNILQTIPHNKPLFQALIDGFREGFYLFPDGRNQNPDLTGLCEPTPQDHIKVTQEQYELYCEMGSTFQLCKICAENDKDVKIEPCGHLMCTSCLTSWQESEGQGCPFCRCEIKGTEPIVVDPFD
Outline: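 First, the insect-cell-expressed protein is biotinylated at its amino-terminal AviTag with BirA and coupled to SA-Tb. Next, the tracer KD is determined for each protein. Finally, compounds are titrated three-fold in duplicate […], at 2% DMSO, and Ki is reported as a geometric mean.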

[2] = molecular target: T2, C-CBL (46-435) (Homo sapiens, UniProt P22681); assay: Surface Plasmon Resonance (SPR) assay, binding affinity and kinetics, C-CBL; conditions: SPR at 10° C., biotinylated C-CBL (46-435) on streptavidin chip; geometric mean; read-out: C-CBL SPR Kd (nM) GMean
T2 construct: N-terminal biotinylated WT CBL-B (36-427) and C-CBL (46-435) were captured on a streptavidin (SA) coated sensor chip
T2 sequence (P22681 46-435): T1 sequence (P22681 46-435)
Outline: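 SPR kinetics at 10° C, run either single-cycle (0.001–1 μM, 3-fold, 6 points, 120 s on, >5400 s off) or multi-cycle (10 points, 2-fold, top 10 or 100 μM, 90 s on). Proteins were N-biotinylated CBL-B (36-427) and C-CBL (46-435) on SA surfaces, in pH 7.2 HEPES, 2% DMSO.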

| Structure (SMILES) | Ki [1] | Kd [2] |
| --- | --- | --- |
| C[C@H](N[C@H]1CCOC1)c1nc(C(F)(F)F)cc2c(-c3cccc([C@H](c4nncn4C)C4CCC4)c3)n[nH]c12 (single isomer, unassigned) [Example C2] | 55.6 nM | 38.8 nM |
| C[C@@H](N[C@H]1CCOC1)c1nc(C(F)(F)F)cc2c(-c3cccc([C@H](c4nncn4C)C4CCC4)c3)n[nH]c12 (single isomer, unassigned) [Example C3] | 52.1 nM | 80.7 nM |
| C[C@H](NC1CCCC1)c1nc(C(F)(F)F)cc2c(-c3cccc([C@H](c4nncn4C)C4CCC4)c3)n[nH]c12 (single isomer, unassigned) [Example C10] | 108 nM | 189 nM |
| C[C@@H](NC1CCCC1)c1nc(C(F)(F)F)cc2c(-c3cccc([C@H](c4nncn4C)C4CCC4)c3)n[nH]c12 (single isomer, unassigned) [Example C11] | 3.7 nM | 6.1 nM |
| C[C@H](N[C@H]1CCC(F)(F)C1)c1nc(C(F)(F)F)cc2c(-c3cccc(C4(Cc5nncn5C)COC4)c3)n[nH]c12 (single isomer, unassigned) [Example C12] | 1.3 nM | 1.8 nM |
| C[C@@H](N[C@H]1CCC(F)(F)C1)c1nc(C(F)(F)F)cc2c(-c3cccc(C4(Cc5nncn5C)COC4)c3)n[nH]c12 (single isomer, unassigned) [Example C13] | 8 nM | 11.9 nM |
| C[C@@H](NC1CCCC1)c1nc(C(F)(F)F)cc2c(-c3cccc(C4(Cc5nncn5C)COC4)c3)n[nH]c12 (single isomer, unassigned) [Example C15] | 42.1 nM | 33.9 nM |
| C[C@H](N[C@@H]1CCC(F)(F)C1)c1nc(C(F)(F)F)cc2c(-c3cccc(C4(Cc5nncn5C)COC4)c3)n[nH]c12 (single isomer, unassigned) [Example C17] | 24.8 nM | 28.3 nM |
| C[C@@H](N[C@@H]1CCC(F)(F)C1)c1nc(C(F)(F)F)cc2c(-c3cccc(C4(Cc5nncn5C)COC4)c3)n[nH]c12 (single isomer, unassigned) [Example C18] | 15.1 nM | 6.2 nM |
| CC(c1nc(C(F)(F)F)cc2c(-c3cccc(C4(Cc5nncn5C)COC4)c3)n[nH]c12)N1CCC[C@H](C)C1 (single isomer, unassigned) [Example C19] | 61.3 nM | 51.3 nM |
| CC(c1nc(C(F)(F)F)cc2c(-c3cccc(C4(Cc5nncn5C)COC4)c3)n[nH]c12)N1CCC[C@H](C)C1 (single isomer, unassigned) [Example C20] | 16.9 nM | 11.3 nM |
| CC(c1nc(C(F)(F)F)cc2c(-c3cccc(C4(Cc5nncn5C)COC4)c3)n[nH]c12)N1CCCCC1 (single isomer, unassigned) [Example C21, 3-(3-{3-[(4-methyl-4H-1,2,4-triazol-3-yl)methyl]oxetan-3-yl}phenyl)-7-[(1ξ)-1-(piperidin-1-yl)ethyl]-5-(trifluoromethyl)-1H-pyrazolo[3,4-c]pyridine] | 93.5 nM | 108 nM |
| CC(c1nc(C(F)(F)F)cc2c(-c3cccc(C4(Cc5nncn5C)COC4)c3)n[nH]c12)N1CCCCC1 (single isomer, unassigned) [Example C22, 3-(3-{3-[(4-methyl-4H-1,2,4-triazol-3-yl)methyl]oxetan-3-yl}phenyl)-7-[(1ξ)-1-(piperidin-1-yl)ethyl]-5-(trifluoromethyl)-1H-pyrazolo[3,4-c]pyridine] | 133 nM | 116 nM |
| CC(c1nc(C(F)(F)F)cc2c(-c3cccc(C4(Cc5nncn5C)COC4)c3)n[nH]c12)N1CCOCC1 (single isomer, unassigned) [Example C23, 3-(3-{3-[(4-methyl-4H-1,2,4-triazol-3-yl)methyl]oxetan-3-yl}phenyl)-7-[(1ξ)-1-(morpholin-4-yl)ethyl]-5-(trifluoromethyl)-1H-pyrazolo[3,4-c]pyridine] | 24.8 nM | 29.4 nM |
| CC(c1nc(C(F)(F)F)cc2c(-c3cccc(C4(Cc5nncn5C)COC4)c3)n[nH]c12)N1CCOCC1 (single isomer, unassigned) [Example C24, 3-(3-{3-[(4-methyl-4H-1,2,4-triazol-3-yl)methyl]oxetan-3-yl}phenyl)-7-[(1ξ)-1-(morpholin-4-yl)ethyl]-5-(trifluoromethyl)-1H-pyrazolo[3,4-c]pyridine] | 134 nM | 146 nM |
| CC(c1nc(C(F)(F)F)cc2c(-c3cccc(C4(Cc5nncn5C)COC4)c3)n[nH]c12)N1C[C@@H](F)[C@H](F)C1 (single isomer, unassigned) [Example C25] | 33.1 nM | 31.8 nM |
| C[C@H](c1nc(C(F)(F)F)cc2c(-c3cccc(C4(Cc5nncn5C)COC4)c3)n[nH]c12)N1C[C@@H](F)[C@H](F)C1 (single isomer, unassigned) [Example C26] | 198 nM | 183 nM |
| CC(NC1CNC1)c1nc(C(F)(F)F)cc2c(-c3cccc(C4(Cc5nncn5C)COC4)c3)n[nH]c12 (single isomer, unassigned) [Example C27, N-{(1ξ)-1-[3-(3-{3-[(4-methyl-4H-1,2,4-triazol-3-yl)methyl]oxetan-3-yl}phenyl)-5-(trifluoromethyl)-1H-pyrazolo[3,4-c]pyridin-7-yl]ethyl}azetidin-3-amine] | 76 nM | 71 nM |
| CC(NC1CNC1)c1nc(C(F)(F)F)cc2c(-c3cccc(C4(Cc5nncn5C)COC4)c3)n[nH]c12 (single isomer, unassigned) [Example C28, N-{(1ξ)-1-[3-(3-{3-[(4-methyl-4H-1,2,4-triazol-3-yl)methyl]oxetan-3-yl}phenyl)-5-(trifluoromethyl)-1H-pyrazolo[3,4-c]pyridin-7-yl]ethyl}azetidin-3-amine] | 114 nM | 125 nM |
| CC1CN(Cc2nc(C(F)(F)F)cc3c(-c4cccc(C5(Cc6nncn6C)COC5)c4)n[nH]c23)CCC1(F)F (single isomer, unassigned) [Example C31, 7-{[(3ξ)-4,4-difluoro-3-methylpiperidin-1-yl]methyl}-3-(3-{3-[(4-methyl-4H-1,2,4-triazol-3-yl)methyl]oxetan-3-yl}phenyl)-5-(trifluoromethyl)-1H-pyrazolo[3,4-c]pyridine] | 112 nM | 133 nM |
| CC1CN(Cc2nc(C(F)(F)F)cc3c(-c4cccc(C5(Cc6nncn6C)COC5)c4)n[nH]c23)CCC1(F)F (single isomer, unassigned) [Example C32, 7-{[(3ξ)-4,4-difluoro-3-methylpiperidin-1-yl]methyl}-3-(3-{3-[(4-methyl-4H-1,2,4-triazol-3-yl)methyl]oxetan-3-yl}phenyl)-5-(trifluoromethyl)-1H-pyrazolo[3,4-c]pyridine] | 55.6 nM | 42.6 nM |
| CC(C)NC(C)c1nc(C(F)(F)F)cc2c(-c3cccc([C@H](c4nncn4C)C4CCC4)c3)n[nH]c12 (single isomer, unassigned) [Example C34] | 88.5 nM | 172 nM |
| CC(C)NC(C)c1nc(C(F)(F)F)cc2c(-c3cccc([C@H](c4nncn4C)C4CCC4)c3)n[nH]c12 (single isomer, unassigned) [Example C35] | 29.1 nM | 54 nM |
| C[C@H](N[C@H]1C[C@@H](O)C1)c1nc(C(F)(F)F)cc2c(-c3cccc([C@H](c4nncn4C)C4CCC4)c3)n[nH]c12 (single isomer, unassigned) [Example C36] | 16.8 nM | 17.9 nM |
| C[C@@H](N[C@H]1C[C@@H](O)C1)c1nc(C(F)(F)F)cc2c(-c3cccc([C@H](c4nncn4C)C4CCC4)c3)n[nH]c12 (single isomer, unassigned) [Example C37] | 50.6 nM | 75.5 nM |
| C[C@H](N[C@H]1CCC[C@@H]1O)c1nc(C(F)(F)F)cc2c(-c3cccc([C@H](c4nncn4C)C4CCC4)c3)n[nH]c12 (single isomer, unassigned) [Example C47] | 5 nM | 7.2 nM |
| CCNC(C)c1nc(C(F)(F)F)cc2c(-c3cccc([C@H](c4nncn4C)C4CCC4)c3)n[nH]c12 (single isomer, unassigned) [Example C89] | 105 nM | 125 nM |
| C[C@@H](N[C@H]1C[C@H](O)C1)c1nc(C(F)(F)F)cc2c(-c3cccc([C@H](c4nncn4C)C4CCC4)c3)n[nH]c12 (single isomer, unassigned) [Example C92] | 50 nM | 39.5 nM |
| C[C@H](N[C@H]1C[C@@H](F)C1)c1nc(C(F)(F)F)cc2c(-c3cccc([C@H](c4nncn4C)C4CCC4)c3)n[nH]c12 (single isomer, unassigned) [Example C95] | 28 nM | 72.5 nM |
| C[C@@H](N[C@H]1C[C@@H](F)C1)c1nc(C(F)(F)F)cc2c(-c3cccc([C@H](c4nncn4C)C4CCC4)c3)n[nH]c12 (single isomer, unassigned) [Example C96] | 53.5 nM | 91.2 nM |

— US20260125375A1 (Pfizer Inc., priority 2022, published 2026)
